Laboratory results published in PubChem BioAssay AID328 (DTP/NCI, 2004).
Toxic doses and inconclusive results are not listed.

Tested on: BDF1 mice, P388 leukemia ip, median survival T/C
Assay: NCI In Vivo Anticancer Drug Screen. Data for tumor model P388 Leukemia (intraperitoneal) in B6D2F1 (BDF1) mice
Details: endpoint: median survival time, higher = longer survival
How it was run: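 Antitumour effect was judged in vivo: survival in drug-treated mice, normalised to that of vehicle-dosed controls, gives the reported T/C.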

[1] = dose: 25.0 mg/kg/injection, schedule: Q01DX009 (ip), vehicle: Klucel (hydroxypropylcellulose) (HPC)
[2] = dose: 50.0 mg/kg/injection, schedule: Q01DX009 (ip), vehicle: Klucel (hydroxypropylcellulose) (HPC)
[3] = dose: 100.0 mg/kg/injection, schedule: Q04DX003 (ip), vehicle: saline with Tween-80
[4] = dose: 200.0 mg/kg/injection, schedule: Q04DX003 (ip), vehicle: saline with Tween-80
[5] = dose: 400.0 mg/kg/injection, schedule: Q04DX003 (ip), vehicle: saline with Tween-80
[6] = dose: 12.5 mg/kg/injection, schedule: Q01DX009 (ip), vehicle: saline
[7] = dose: 100.0 mg/kg/injection, schedule: Q04DX003 (ip), vehicle: saline
[8] = dose: 200.0 mg/kg/injection, schedule: Q04DX003 (ip), vehicle: saline
[9] = dose: 400.0 mg/kg/injection, schedule: Q04DX003 (ip), vehicle: saline

## N=C(N)SCc1cccc([N+](=O)[O-])c1
dose: 12.5 mg/kg/injection, schedule: Q01DX009 (ip), vehicle: Klucel (hydroxypropylcellulose) (HPC)
  T/C: 97 % of control
[1]
  T/C: 103 % of control
[2]
  T/C: 110 % of control

## COc1cc2c(c(OC)c1OC)-c1cc3c(cc1C(=O)[C@@H]1COC(=O)[C@@H]21)OCO3
dose: 1.3 mg/kg/injection, schedule: Q01DX009 (ip), vehicle: saline
  T/C: 109 % of control
dose: 2.0 mg/kg/injection, schedule: Q01DX009 (ip), vehicle: saline
  T/C: 95 % of control
dose: 3.0 mg/kg/injection, schedule: Q01DX009 (ip), vehicle: saline
  T/C: 95 % of control
dose: 5.3 mg/kg/injection, schedule: Q01DX009 (ip), vehicle: saline with Tween-80
  T/C: 100 % of control
dose: 8.0 mg/kg/injection, schedule: Q01DX009 (ip), vehicle: saline with Tween-80
  T/C: 100 % of control
dose: 12.0 mg/kg/injection, schedule: Q01DX009 (ip), vehicle: saline with Tween-80
  T/C: 95 % of control
dose: 21.4 mg/kg/injection, schedule: Q01DX009 (ip), vehicle: saline
  T/C: 105 % of control
dose: 32.0 mg/kg/injection, schedule: Q01DX009 (ip), vehicle: saline
  T/C: 110 % of control
dose: 48.0 mg/kg/injection, schedule: Q01DX009 (ip), vehicle: saline
  T/C: 110 % of control

## COc1cc2c(cc1OC)C(NC(C)=O)N(C)c1c-2ccc2cc3c(cc12)OCO3 (stereo unspecified)
dose: 40.0 mg/kg/injection, schedule: Q01DX009 (ip), vehicle: saline
  T/C: 168 % of control
dose: 80.0 mg/kg/injection, schedule: Q01DX009 (ip), vehicle: saline
  T/C: 104 % of control
dose: 120.0 mg/kg/injection, schedule: Q01DX009 (ip), vehicle: saline
  T/C: 100 % of control

## CC1(C)N=C(N)N=C(N)N1c1ccc(CCCCc2ccc(S(=O)(=O)F)cc2)cc1
dose: 12.0 mg/kg/injection, schedule: Q01DX009 (ip), vehicle: saline
  T/C: 150 % of control

## CCN(CC)S(=O)(=O)c1cccc(C(O)CC(O)(C(F)(F)F)C(F)(F)F)c1 (stereo unspecified)
dose: 100.0 mg/kg/injection, schedule: Q04DX003 (ip), vehicle: other
  T/C: 95 % of control
dose: 200.0 mg/kg/injection, schedule: Q04DX003 (ip), vehicle: other
  T/C: 86 % of control
dose: 400.0 mg/kg/injection, schedule: Q04DX003 (ip), vehicle: other
  T/C: 90 % of control

## C[CH2][Pb]([CH2]C)([CH2]C)[O]C(=O)COC
dose: 0.78 mg/kg/injection, schedule: Q01DX009 (ip), vehicle: Klucel (hydroxypropylcellulose) (HPC)
  T/C: 115 % of control
dose: 1.56 mg/kg/injection, schedule: Q01DX009 (ip), vehicle: Klucel (hydroxypropylcellulose) (HPC)
  T/C: 98 % of control
dose: 3.13 mg/kg/injection, schedule: Q01DX009 (ip), vehicle: Klucel (hydroxypropylcellulose) (HPC)
  T/C: 121 % of control

## CCCCSc1ncnc2c1ncn2C1CCCCO1 (stereo unspecified)
dose: 100.0 mg/kg/injection, schedule: Q01DX009 (ip), vehicle: saline sonified
  T/C: 90 % of control
[3]
  T/C: 87 % of control
dose: 200.0 mg/kg/injection, schedule: Q01DX009 (ip), vehicle: saline sonified
  T/C: 122 % of control
[4]
  T/C: 100 % of control
dose: 400.0 mg/kg/injection, schedule: Q01DX009 (ip), vehicle: saline sonified
  T/C: 100 % of control
[5]
  T/C: 100 % of control

## CC(=O)Oc1c(Br)c(-c2cc([N+](=O)[O-])c(C)c([N+](=O)[O-])c2C)c(OC(C)=O)c(Br)c1-c1cc([N+](=O)[O-])c(C)c([N+](=O)[O-])c1C
dose: 50.0 mg/kg/injection, schedule: Q01DX001 (ip), vehicle: Klucel (hydroxypropylcellulose) (HPC)
  T/C: 112 % of control
dose: 100.0 mg/kg/injection, schedule: Q01DX001 (ip), vehicle: Klucel (hydroxypropylcellulose) (HPC)
  T/C: 115 % of control
dose: 200.0 mg/kg/injection, schedule: Q01DX001 (ip), vehicle: Klucel (hydroxypropylcellulose) (HPC)
  T/C: 115 % of control
dose: 400.0 mg/kg/injection, schedule: Q01DX001 (ip), vehicle: Klucel (hydroxypropylcellulose) (HPC)
  T/C: 106 % of control

## CC1(C)C(N2CCOCC2)C(c2ccccc2)S1(=O)=O (stereo unspecified)
dose: 100.0 mg/kg/injection, schedule: Q01DX001 (ip), vehicle: saline with Tween-80
  T/C: 100 % of control
dose: 400.0 mg/kg/injection, schedule: Q01DX001 (ip), vehicle: saline with Tween-80
  T/C: 95 % of control

## OCCC1=CCC1
dose: 50.0 mg/kg/injection, schedule: Q01DX009 (ip), vehicle: saline with Tween-80
  T/C: 101 % of control
dose: 100.0 mg/kg/injection, schedule: Q01DX009 (ip), vehicle: saline with Tween-80
  T/C: 101 % of control
dose: 200.0 mg/kg/injection, schedule: Q01DX009 (ip), vehicle: saline with Tween-80
  T/C: 111 % of control

## CC(=O)c1ccc(NC(=O)C(F)(F)F)cc1
dose: 50.0 mg/kg/injection, schedule: Q04DX003 (ip), vehicle: saline with Tween-80
  T/C: 111 % of control
[3]
  T/C: 96 % of control
[4]
  T/C: 103 % of control
[5]
  T/C: 103 % of control

## Nc1nc(N)c2cc(N3CCCC3c3ccc(Cl)cc3)ccc2n1 (stereo unspecified)
dose: 3.12 mg/kg/injection, schedule: Q01DX009 (ip), vehicle: saline
  T/C: 109 % of control
[6]
  T/C: 89 % of control
dose: 12.5 mg/kg/injection, schedule: Q04DX003 (ip), vehicle: water
  T/C: 92 % of control
dose: 25.0 mg/kg/injection, schedule: Q04DX003 (ip), vehicle: water
  T/C: 111 % of control
dose: 50.0 mg/kg/injection, schedule: Q04DX003 (ip), vehicle: water
  T/C: 115 % of control

## COC(=O)OCCOC(=O)OC
dose: 100.0 mg/kg/injection, schedule: Q01DX009 (ip), vehicle: saline
  T/C: 100 % of control
[7]
  T/C: 95 % of control
dose: 200.0 mg/kg/injection, schedule: Q01DX009 (ip), vehicle: saline
  T/C: 110 % of control
[8]
  T/C: 100 % of control
dose: 400.0 mg/kg/injection, schedule: Q01DX009 (ip), vehicle: saline
  T/C: 100 % of control
[9]
  T/C: 100 % of control

## CO[C@@]12[C@H](COC(N)=O)C3=C(C(=O)C(C)=C(N)C3=O)N1C[C@H]1[C@@H]2N1C(=O)[C@@H]1N2C(=O)[C@@H](NC(=O)Cc3ccccc3)[C@H]2SC1(C)C
[6]
  T/C: 151 % of control
dose: 25.0 mg/kg/injection, schedule: Q01DX009 (ip), vehicle: saline
  T/C: 160 % of control
dose: 50.0 mg/kg/injection, schedule: Q01DX009 (ip), vehicle: saline
  T/C: 210 % of control

## Cc1cc(C)c(C(=O)C=O)c(C)c1
[1]
  T/C: 99 % of control
[2]
  T/C: 104 % of control
dose: 100.0 mg/kg/injection, schedule: Q01DX009 (ip), vehicle: Klucel (hydroxypropylcellulose) (HPC)
  T/C: 110 % of control

## Cc1cccc(NS(=O)(=O)c2ccc(Cl)cc2)c1C
[7]
  T/C: 100 % of control
[8]
  T/C: 95 % of control
[9]
  T/C: 108 % of control

## NC(C(=O)O)c1cc(=O)[nH]o1 (stereo unspecified)
dose: 0.25 mg/kg/injection, schedule: Q01DX009 (ip), vehicle: Klucel (hydroxypropylcellulose) (HPC)
  T/C: 86 % of control
dose: 0.5 mg/kg/injection, schedule: Q01DX009 (ip), vehicle: Klucel (hydroxypropylcellulose) (HPC)
  T/C: 97 % of control
dose: 1.0 mg/kg/injection, schedule: Q01DX009 (ip), vehicle: Klucel (hydroxypropylcellulose) (HPC)
  T/C: 112 % of control

## C=C(C)C12CC(C)C34OC5(CCCCCCCC(C)C6C(C)C(OC(=O)c7ccccc7)C(O)(C(O)C7(COC(=O)CCCCCCCCCCCCCCC)OC7C3C1O5)C64)O2 (stereo unspecified)
dose: 0.6 micrograms/kg/injection, schedule: Q01DX009 (ip), vehicle: saline + alcohol
  T/C: 104 % of control
dose: 1.3 micrograms/kg/injection, schedule: Q01DX009 (ip), vehicle: saline + alcohol
  T/C: 112 % of control
dose: 1.5 micrograms/kg/injection, schedule: Q01DX009 (ip), vehicle: saline + alcohol
  T/C: 103 % of control
dose: 2.5 micrograms/kg/injection, schedule: Q01DX009 (ip), vehicle: saline + alcohol
  T/C: 109 % of control
dose: 3.1 micrograms/kg/injection, schedule: Q01DX009 (ip), vehicle: saline + alcohol
  T/C: 106 % of control
dose: 5.0 micrograms/kg/injection, schedule: Q01DX009 (ip), vehicle: saline + alcohol
  T/C: 112 % of control
dose: 10.0 micrograms/kg/injection, schedule: Q01DX009 (ip), vehicle: saline + alcohol
  T/C: 96 % of control
dose: 12.5 micrograms/kg/injection, schedule: Q01DX009 (ip), vehicle: saline + alcohol
  T/C: 154 % of control
dose: 20.0 micrograms/kg/injection, schedule: Q01DX009 (ip), vehicle: saline + alcohol
  T/C: 116 % of control
dose: 25.0 micrograms/kg/injection, schedule: Q01DX009 (ip), vehicle: saline + alcohol
  T/C: 168 % of control
dose: 50.0 micrograms/kg/injection, schedule: Q01DX009 (ip), vehicle: saline + alcohol
  T/C: 183 % of control
dose: 80.0 micrograms/kg/injection, schedule: Q01DX009 (ip), vehicle: saline + alcohol
  T/C: 116 % of control
